We go through two molecules from PMC4116439 (ChemMedChem, 2014).

SMILES strings stand for the structures. Substitutions are numbered along the chain they refer to. Bounds are passed on as bounds.

For one assay, the target named is T1, human M1 (Homo sapiens, UniProt P11229).
T1 sequence (P11229 1-460): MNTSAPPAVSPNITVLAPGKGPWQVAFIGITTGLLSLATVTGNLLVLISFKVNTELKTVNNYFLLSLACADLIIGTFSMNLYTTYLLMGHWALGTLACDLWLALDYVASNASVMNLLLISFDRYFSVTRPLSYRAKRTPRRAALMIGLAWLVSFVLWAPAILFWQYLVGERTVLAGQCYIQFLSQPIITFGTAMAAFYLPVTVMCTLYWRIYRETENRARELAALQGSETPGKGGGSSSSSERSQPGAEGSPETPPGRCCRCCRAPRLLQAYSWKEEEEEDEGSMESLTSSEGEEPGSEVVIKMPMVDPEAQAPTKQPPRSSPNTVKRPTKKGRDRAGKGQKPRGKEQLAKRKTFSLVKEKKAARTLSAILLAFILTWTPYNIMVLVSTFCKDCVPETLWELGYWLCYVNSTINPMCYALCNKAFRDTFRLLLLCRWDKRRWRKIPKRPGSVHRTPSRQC
The conditions noted are these: read-out: hM1 IC50; printed as hM1-M4; cited from earlier work.

A further assay addresses T2, human M2 (Homo sapiens, UniProt P08172).
T2 sequence (P08172 1-466): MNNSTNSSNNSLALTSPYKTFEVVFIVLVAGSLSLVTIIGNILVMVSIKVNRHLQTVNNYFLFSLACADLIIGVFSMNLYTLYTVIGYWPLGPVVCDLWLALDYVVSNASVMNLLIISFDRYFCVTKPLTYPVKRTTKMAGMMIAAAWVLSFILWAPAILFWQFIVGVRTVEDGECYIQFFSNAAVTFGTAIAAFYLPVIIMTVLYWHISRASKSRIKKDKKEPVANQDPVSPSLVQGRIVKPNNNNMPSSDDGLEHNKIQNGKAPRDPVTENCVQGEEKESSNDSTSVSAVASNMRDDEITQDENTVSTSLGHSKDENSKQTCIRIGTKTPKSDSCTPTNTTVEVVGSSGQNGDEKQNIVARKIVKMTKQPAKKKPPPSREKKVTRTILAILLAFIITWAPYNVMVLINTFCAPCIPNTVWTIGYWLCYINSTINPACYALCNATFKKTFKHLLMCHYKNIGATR
The note with it: read-out: hM2 IC50; printed as hM1-M4; cited from earlier work.

For the next assay, the target named is human M3 (Homo sapiens, UniProt P20309). The note with it: read-out: hM3 IC50; printed as hM1-M4; cited from earlier work.
Sequence of human M3 (P20309 whole entry): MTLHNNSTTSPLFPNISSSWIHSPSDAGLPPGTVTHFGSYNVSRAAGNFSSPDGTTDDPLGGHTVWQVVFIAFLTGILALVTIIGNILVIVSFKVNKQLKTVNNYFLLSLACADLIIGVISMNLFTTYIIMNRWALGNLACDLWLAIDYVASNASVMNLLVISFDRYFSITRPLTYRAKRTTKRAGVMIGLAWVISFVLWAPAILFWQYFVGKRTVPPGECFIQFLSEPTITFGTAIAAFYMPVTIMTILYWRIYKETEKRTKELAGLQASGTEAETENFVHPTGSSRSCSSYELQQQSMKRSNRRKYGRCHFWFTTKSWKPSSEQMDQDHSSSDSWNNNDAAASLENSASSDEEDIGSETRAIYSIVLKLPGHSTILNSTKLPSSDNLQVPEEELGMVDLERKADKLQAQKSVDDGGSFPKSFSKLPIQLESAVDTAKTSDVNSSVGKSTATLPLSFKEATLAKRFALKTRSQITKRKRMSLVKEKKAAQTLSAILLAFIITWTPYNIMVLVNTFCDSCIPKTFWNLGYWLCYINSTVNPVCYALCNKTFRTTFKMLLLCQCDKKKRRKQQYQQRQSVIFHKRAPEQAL
The target in the next assay is T3, human M4 (Homo sapiens, UniProt P08173).
T3 sequence (P08173 1-479): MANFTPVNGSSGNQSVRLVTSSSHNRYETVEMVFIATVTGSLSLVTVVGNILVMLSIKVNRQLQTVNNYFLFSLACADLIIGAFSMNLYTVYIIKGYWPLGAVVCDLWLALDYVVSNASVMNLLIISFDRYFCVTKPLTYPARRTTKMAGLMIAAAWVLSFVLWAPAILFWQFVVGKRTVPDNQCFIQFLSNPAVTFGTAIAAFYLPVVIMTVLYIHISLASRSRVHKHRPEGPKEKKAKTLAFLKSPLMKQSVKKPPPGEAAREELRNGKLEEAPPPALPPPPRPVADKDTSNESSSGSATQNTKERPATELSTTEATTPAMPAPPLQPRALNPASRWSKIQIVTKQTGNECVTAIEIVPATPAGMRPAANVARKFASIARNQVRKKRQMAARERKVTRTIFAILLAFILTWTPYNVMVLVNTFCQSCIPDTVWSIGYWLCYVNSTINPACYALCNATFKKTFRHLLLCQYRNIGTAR
The conditions noted are these: read-out: hM4 IC50; printed as hM1-M4; cited from earlier work.

Another assay concerns the target T4, rM1 (Rattus norvegicus, UniProt P08482).
T4 sequence (P08482 1-460): T1 sequence (P11229 1-460) with A5V, T254S, P309S, R320K, A337G, I413V
Briefly: rat M1 functional assay. Format: cell-based. The note with it: read-out: rM1 IC50, printed as rM1-rM4.

A further assay has as its target T5, rM2 (Rattus norvegicus, UniProt P10980).
T5 sequence (P10980 1-466): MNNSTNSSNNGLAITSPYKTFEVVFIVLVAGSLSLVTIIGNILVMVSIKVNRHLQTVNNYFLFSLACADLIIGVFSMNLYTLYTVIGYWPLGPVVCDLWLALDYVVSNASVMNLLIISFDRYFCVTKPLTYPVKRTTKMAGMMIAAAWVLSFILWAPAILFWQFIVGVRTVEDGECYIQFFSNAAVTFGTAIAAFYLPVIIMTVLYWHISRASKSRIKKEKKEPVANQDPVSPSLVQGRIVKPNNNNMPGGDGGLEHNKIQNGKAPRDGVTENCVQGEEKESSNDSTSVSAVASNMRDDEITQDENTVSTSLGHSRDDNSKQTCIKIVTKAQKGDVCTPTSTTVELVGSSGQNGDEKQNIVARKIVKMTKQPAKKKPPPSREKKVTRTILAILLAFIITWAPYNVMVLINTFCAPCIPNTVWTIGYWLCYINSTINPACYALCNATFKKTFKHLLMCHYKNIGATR
As to the kind of experiment: rat M2 functional assay. Format: cell-based. The conditions noted are these: read-out: rM2 IC50, printed as rM1-rM4.

A further assay deals with rM3 (Rattus norvegicus, UniProt P08483). Briefly: rat M3 functional assay. Format: cell-based. The conditions noted are these: read-out: rM3 IC50, printed as rM1-rM4.
Sequence of rM3 (P08483 whole entry): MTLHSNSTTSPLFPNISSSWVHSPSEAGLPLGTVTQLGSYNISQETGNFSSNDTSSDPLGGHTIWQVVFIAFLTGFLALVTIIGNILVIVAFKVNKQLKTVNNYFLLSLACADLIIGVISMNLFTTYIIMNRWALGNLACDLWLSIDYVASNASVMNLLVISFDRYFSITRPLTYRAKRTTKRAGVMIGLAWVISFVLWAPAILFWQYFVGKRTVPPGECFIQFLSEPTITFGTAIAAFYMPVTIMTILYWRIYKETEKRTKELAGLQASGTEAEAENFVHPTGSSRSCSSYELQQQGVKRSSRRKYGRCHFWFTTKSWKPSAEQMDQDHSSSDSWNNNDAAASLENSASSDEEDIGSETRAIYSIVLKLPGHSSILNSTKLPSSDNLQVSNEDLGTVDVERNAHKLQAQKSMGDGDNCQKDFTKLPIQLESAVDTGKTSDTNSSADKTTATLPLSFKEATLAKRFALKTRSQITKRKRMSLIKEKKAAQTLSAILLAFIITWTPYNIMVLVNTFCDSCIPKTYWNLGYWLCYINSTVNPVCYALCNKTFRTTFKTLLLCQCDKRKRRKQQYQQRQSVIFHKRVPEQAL
A further assay addresses T6, rM4 (Rattus norvegicus, UniProt P08485).
T6 sequence (P08485 1-478): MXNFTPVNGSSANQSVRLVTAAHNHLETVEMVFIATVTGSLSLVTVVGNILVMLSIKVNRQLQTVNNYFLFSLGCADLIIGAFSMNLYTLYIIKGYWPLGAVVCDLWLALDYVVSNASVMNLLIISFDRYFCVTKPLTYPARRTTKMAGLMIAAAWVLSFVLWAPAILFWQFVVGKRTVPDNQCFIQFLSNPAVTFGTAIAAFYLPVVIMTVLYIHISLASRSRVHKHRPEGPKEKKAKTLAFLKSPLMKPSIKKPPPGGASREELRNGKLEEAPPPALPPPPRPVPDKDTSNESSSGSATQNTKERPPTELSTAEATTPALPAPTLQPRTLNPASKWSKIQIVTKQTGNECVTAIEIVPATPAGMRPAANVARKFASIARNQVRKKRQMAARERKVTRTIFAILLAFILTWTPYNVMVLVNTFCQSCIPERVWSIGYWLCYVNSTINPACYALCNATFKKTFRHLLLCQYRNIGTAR
Briefly: rat M4 functional assay. The class given is cell-based. The conditions noted are these: read-out: rM4 IC50, printed as rM1-rM4.

Assay [1] relates to 68 GPCRs, ion channels and transporters. Briefly: Eurofins radioligand binding panel. The note with it: 10 μM, 68 targets.

Broadly, the IC50 is the concentration needed to halve the response being measured. Turning to `O=C(c1ccc(F)c(F)c1)N1CCN2C(=O)c3ccccc3[C@@]12c1ccc(Cl)cc1` [compound 5], the IC50 on human M1, at human M2, at human M3 and at human M4 was > 30 µM throughout.

Consider `CC(=O)c1cccc(OCc2cc(C(=O)N(C)[C@@H](C)c3ccccn3)no2)c1` [(S)-16], for which the IC50 at rM1, on rM2, on rM3 and at rM4 was > 30 µM each time. Besides, the “inhibition in radioligand binding panel” value in assay [1] was ≤ 50%.
